Measurements taken from patent US9868935B2, “Composition and method of stem cells for preservation of cardiac tissue” (CRIOESTAMINAL, SAÚDE E TECNOLOGIA, SA., priority 2012, dated 2018).

Assays:
[1] = test system: CD34+ cells; test: Antagonist pretreatment and LPA-induced CD34+ cell survival in hypoxia (Annexin V/PI FACS); type: cell-based, human; details: hypoxia 24 h; for effect of antagonist on pro-survival effect of LPA: antagonist 1 h pretreatment + LPA 100 μM
Experimental: FIG. 5—LPA induces CD34+ cell survival mainly through peroxisome proliferator-activator receptor (PPAR). Cells were cultured in serum free medium with LPA. Cells were pretreated with Rho kinase inhibitor (Y-2762, 50 μM), mitogen-activated protein kinase (MAPK) inhibitor (PD98059, 60 μM), LPA1- and LPA3-specific inhibitor (Ki16425, 10 μM), or peroxisome proliferator-activator receptor g (PPARg) inhibitor (GW9662, 50 μM) for 1 hour before hypoxia and cell medium containing LPA (100 μM) for 24 h. Cells without any pretreatment and cultured in serum free medium with or without LPA, in hypoxia for 24 h, were used as positive and negative controls, respectively. Results are average±SEM (n=3-6). * Denote statistical significance: *P<0.05, **P<0.01, […].
The biological roles of LPA are diverse and include developmental, physiological, and pathophysiological effects (Lin, M. E., D. R. Herr, and J. Chun, Lysophosphatidic acid (LPA) receptors: signaling properties and disease relevance. Prostaglandins Other Lipid Mediat, 2010. 91(3-4): p. 130-8). To date up to five LPA receptors (LPARs) have been identified: LPA1-LPA5 (Choi, J. W., et al., LPA receptors: subtypes and biological actions. Annu Rev Pharmacol Toxicol, 2010. 50: p. 157-86). The receptors are G protein-coupled receptors (GPCRs) and their presence can be found in multiple tissues. LPA1, LPA2 and LPA3 are widely expressed in most tissues (Ishii, I., et al., Functional comparisons of the lysophosphatidic acid receptors, LP(A1)/VZG-1/EDG-2, LP(A2)/EDG-4, and LP(A3)/EDG-7 in neuronal cell lines using a retrovirus expression system. Mol Pharmacol, 2000. 58(5): p. 895-902). LP4 is expressed in specific organs, such as the pancreas, ovaries and thymus (Lee, C. W., et al., LPA(4)/GPR23 is a lysophosphatidic acid (LPA) receptor utilizing G(s)-, G(q)/G(i)-mediated calcium signaling and G(12/13)-mediated Rho activation. J Biol Chem, 2007. 282(7): p. 4310-7). LPA5 is expressed at low levels in multiple tissues (Lee, C. W., et al., GPR92 as a new G12/13- and Gq-coupled lysophosphatidic acid receptor that increases cAMP, LPA5. J Biol Chem, 2006. 281(33): p. 23589-97). To identify the receptor that is mediating the pro-survival effect of LPA (100 μM), was used Ki16425 (10 μM), an LPA1- and LPA3-specific antagonist, and GW9662 (50 μM), an antagonist of peroxisome proliferator-activator receptor γ (PPAR γ). Studies indicate that LPA has a high affinity by this last receptor (McIntyre, T. M., et al., Identification of an intracellular receptor for lysophosphatidic acid (LPA): LPA is a transcellular PPARgamma agonist. Proc Natl Acad Sci USA, 2003. 100(1): p. 131-6; Gustin, C., M. Van Steenbrugge, and M. Raes, LPA modulates monocyte migration directly and via LPA-stimulated endothelial cells. Am J Physiol Cell Physiol, 2008. 295(4): p. C905-14). This approach was complemented, by inhibiting downstream targets of the receptors including Rho kinase and mitogen-activated protein kinase (MAPK) using Y-2762 (50 μM) and PD98059 (60 μM) antagonists, respectively. It is known that all LPARs couple with and activate G proteins, which in turn activate MAPK (LPA1, LPA2, LPA3 and LPA4) and Rho kinase (LPA1, LPA2, LPA4 and LPA5) (Choi, J. W., et al., LPA receptors: subtypes and biological actions. Annu Rev Pharmacol Toxicol, 2010. 50: p. 157-86). Cells were treated for 1 h in X-Vivo medium containing a specific antagonist followed by culture under hypoxia conditions for 24 h. Cell survival was assessed by FACS analysis after Annexin V/PI staining. […] The number of viable cells decreased from 77% (+LPA) to 67% (P<0.01, n=19). […] Because the two signaling pathways are downstream targets of different LPARs (see above), this might indicate different contributions of LPARs in the survival of CD34+ cells.

[2] = test system: human umbilical cord blood derived CD34+ cells; test: CD34+ cell survival in hypoxia and serum deprived conditions (Annexin V/PI flow cytometry); type: cell-based; details: hypoxia 0.5% O2, 24 h, serum free; P<0.001
Experimental: In an embodiment, UCB CD34+ cells (1×10^^6 cells/mL) were incubated in X-Vivo media (Lonza) in a hypoxia chamber for 24 h (0.5% of O2 and 5% of CO2), in the presence or absence of pharmacological drugs, for further assessment of cell survival/apoptosis and necrosis by FACS analysis of the expression of annexin V and PI respectively. Preferably, cells were pretreated with the respective drugs for 1 hour before hypoxia, and treatment maintained during hypoxia.
In a preferred embodiment, to identify molecules that promote CD34+ cell survival in hypoxia and serum deprived conditions we developed an assay that uses human umbilical cord blood derived CD34+ cells (2×10^^5 cells per well of a 96-well plate) suspended in X-Vivo medium (used in clinical trials (Schachinger, V., et al., Intracoronary bone marrow-derived progenitor cells in acute myocardial infarction. N Engl J Med, 2006. 355(12): p. 1210-21)) and incubated in a hypoxia chamber at 0.5% O2, at 37° C., for 24 h. Some of the drugs selected have been approved by FDA for the treatment of cardiovascular diseases (e.g. Nebivolol Lombardo, R. M., et al., Effects of nebivolol versus carvedilol on left ventricular function in patients with chronic heart failure and reduced left ventricular systolic function. Am J Cardiovasc Drugs, 2006. 6(4): p. 259-63; Ibersatan Massie, B. M., et al., Irbesartan in patients with heart failure and preserved ejection fraction. N Engl J Med, 2008. 359(23): p. 2456-67), others are being evaluated in pre-clinical/clinical assays to improve heart function in patients/models with heart failure (e.g. INO1001 (Szabo, G., et al., INO-1001 a novel poly(ADP-ribose) polymerase (PARP) inhibitor improves cardiac and pulmonary function after crystalloid cardioplegia and extracorporal circulation. Shock, 2004. 21(5): p. 426-32); erythropoietin (Belonje, A. M., et al., Effects of erythropoietin after an acute myocardial infarction: rationale and study design of a prospective, randomized, clinical trial (HEBE III). Am Heart J, 2008. 155(5): p. 817-22); melatonin (Chen, Z., et al., Protective effect of melatonin on myocardial infarction. Am J Physiol Heart Circ Physiol, 2003. 284(5): p. H1618-24); VX-702 (Ma, X. L., et al., Inhibition of p38 mitogen-activated protein kinase decreases cardiomyocyte apoptosis and improves cardiac function after myocardial ischemia and reperfusion. Circulation, 1999. 99(13): p. 1685-91)), others are natural substances found in the human body (LPA). Cell viability was evaluated by flow cytometry using Annexin V/propidium iodide (PI) staining. Annexin V is a phospholipid-binding protein with specificity for phospatidyl serine, one of the earliest makers of cellular transition to an apoptotic state. This phospholipid is translocated from the inner to the outer leaflet of the plasma membrane (Koopman, G., et al., Annexin V for flow cytometric detection of phosphatidylserine expression on B cells undergoing apoptosis. Blood, 1994. 84(5): p. 1415-20.). PI enters in necrotic cells and binds to double-stranded nucleic acids, but is excluded from cells with normal integrity. According to FIG. 1, untreated CD34+ cells show a very poor survival, with only ˜31% of viable cells, ˜31% of apoptotic cells (Annexin V+/PI−) being the majority of the cells ˜39% at the necrotic stage (PI+). […] LPA (10 μM) was the drug with the highest pro-survival effect (˜69% of viable cells) and therefore further studied (FIGS. 1 and 2A).
Importantly, the percentage of viable cells in CD34+ treated with 1 μM of LPA and cultured under hypoxia conditions is similar to untreated cells cultured under normoxia conditions. The pro-survival effect of LPA decreases as a function of hypoxia time (FIG. 2C). The percentage of viable cells in LPA-treated CD34+ cells decreased from 78% at day 1 to 40% at day 3.

Row | Structure (SMILES) | number of viable cells induced by LPA after antagonist ([1]; GW9662 50 μM 1 h pretreatment + LPA 100 μM, P<0.001, n=11) | effect of antagonist on pro-survival effect of LPA [1] | number of viable cells induced by LPA after antagonist ([1]; Ki16425 10 μM 1 h pretreatment + LPA 100 μM, P<0.01, n=19) | cell survival vs untreated cells [2]
1 | O=C(Nc1ccccc1)c1cc([N+](=O)[O-])ccc1Cl [GW9662] | ~53% | did not block totally the pro-survival effect of LPA |  | 
2 | Cc1noc(-c2ccc(CSCCC(=O)O)cc2)c1NC(=O)OC(C)c1ccccc1Cl (stereo not drawn) [Ki16425] |  | relatively small effect | 67% | 
3 | COc1cccc(-c2cc(=O)c3ccccc3o2)c1N [PD98059] |  | suppressed at higher levels the pro-survival effect of LPA than the inhibition of Rho kinase signaling pathway |  | 
4 | CCCCC[C@H](O)/C=C/[C@H]1[C@H](O)CC(=O)[C@@H]1C/C=C\CCCC(=O)O [prostaglandin E2, reference compound] |  |  |  | improved significantly
